System: plants
Experiment: Test D pre-emergence, other plants of Tables D1 and D3
Type: in vivo
Settings: for damage to plant (100=total damage to plant; 0=no damage to plant), SORVU: preemergent, 20 DAA; for damage to plant, ALOMY / damage to plant, AVEFA / damage to plant, BEAVA / damage to plant, BROTE / damage to plant, BRSNN / damage to plant, CHEAL / damage to plant, GALAP / damage to plant, HORVW / damage to plant, KCHSC / damage to plant, LOLPE / damage to plant, POAAN / damage to plant, POLCO / damage to plant, SINAR / damage to plant, STEME / damage to plant, VERPE: pre-emergence, 100=total damage, 0=no damage
Method in brief: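 Seeds treated with herbicide safener; sown in soil; glasshouse, 16 h light, 65% humidity. Sprayed day 1 (pre) or ~day 12 (post). Spray in 0.2% v/v adjuvant. Scored 0–100 damage: 20 DAA pre, 15 d post.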

CCn1nc([C@@H]2CN(C)C(=O)[C@H]2C(=O)Nc2cccc(F)c2F)c2cccc(F)c21 [Compound 14]
damage to plant (100=total damage to plant; 0=no damage to plant), SORVU (rate 130): 0
damage to plant (100=total damage to plant; 0=no damage to plant), SORVU (rate 250): 0
damage to plant (100=total damage to plant; 0=no damage to plant), SORVU (rate 500): 30
damage to plant, ALOMY (rate 15, 20 DAA): 0
damage to plant, AVEFA (rate 15, 20 DAA): 0
damage to plant, BEAVA (rate 15, 20 DAA): 0
damage to plant, BROTE (rate 15, 20 DAA): 0
damage to plant, BRSNN (rate 15, 20 DAA): 0
damage to plant, CHEAL (rate 15, 20 DAA): 0
damage to plant, GALAP (rate 15, 20 DAA): 0
damage to plant, HORVW (rate 15, 20 DAA): 0
damage to plant, KCHSC (rate 15, 20 DAA): 0
damage to plant, LOLPE (rate 15, 20 DAA): 0
damage to plant, POAAN (rate 15, 20 DAA): 0
damage to plant, POLCO (rate 15, 20 DAA): 0
damage to plant, SINAR (rate 15, 20 DAA): 0
damage to plant, STEME (rate 15, 20 DAA): 0
damage to plant, VERPE (rate 15, 20 DAA): 0
damage to plant, ALOMY (rate 30, 20 DAA): 0
damage to plant, AVEFA (rate 30, 20 DAA): 0
damage to plant, BEAVA (rate 30, 20 DAA): 0
damage to plant, BROTE (rate 30, 20 DAA): 0
damage to plant, BRSNN (rate 30, 20 DAA): 0
damage to plant, CHEAL (rate 30, 20 DAA): 0
damage to plant, GALAP (rate 30, 20 DAA): 0
damage to plant, HORVW (rate 30, 20 DAA): 0
damage to plant, KCHSC (rate 30, 20 DAA): 0
damage to plant, LOLPE (rate 30, 20 DAA): 0
damage to plant, POAAN (rate 30, 20 DAA): 0
damage to plant, POLCO (rate 30, 20 DAA): 0
damage to plant, SINAR (rate 30, 20 DAA): 0
damage to plant, STEME (rate 30, 20 DAA): 0
damage to plant, VERPE (rate 30, 20 DAA): 0
damage to plant, ALOMY (rate 60, 20 DAA): 0
damage to plant, AVEFA (rate 60, 20 DAA): 0
damage to plant, BEAVA (rate 60, 20 DAA): 0
damage to plant, BROTE (rate 60, 20 DAA): 0
damage to plant, BRSNN (rate 60, 20 DAA): 0
damage to plant, CHEAL (rate 60, 20 DAA): 0
damage to plant, GALAP (rate 60, 20 DAA): 0
damage to plant, HORVW (rate 60, 20 DAA): 0
damage to plant, KCHSC (rate 60, 20 DAA): 0
damage to plant, LOLPE (rate 60, 20 DAA): 30
damage to plant, POAAN (rate 60, 20 DAA): 0
damage to plant, POLCO (rate 60, 20 DAA): 10
damage to plant, SINAR (rate 60, 20 DAA): 0
damage to plant, STEME (rate 60, 20 DAA): 0
damage to plant, VERPE (rate 60, 20 DAA): 0
damage to plant, ALOMY (rate 130, 20 DAA): 0
damage to plant, AVEFA (rate 130, 20 DAA): 10
damage to plant, BEAVA (rate 130, 20 DAA): 0
damage to plant, BROTE (rate 130, 20 DAA): 0
damage to plant, BRSNN (rate 130, 20 DAA): 0
damage to plant, CHEAL (rate 130, 20 DAA): 0
damage to plant, GALAP (rate 130, 20 DAA): 0
damage to plant, HORVW (rate 130, 20 DAA): 10
damage to plant, KCHSC (rate 130, 20 DAA): 0
damage to plant, LOLPE (rate 130, 20 DAA): 40
damage to plant, POAAN (rate 130, 20 DAA): 20
damage to plant, POLCO (rate 130, 20 DAA): 20
damage to plant, SINAR (rate 130, 20 DAA): 0
damage to plant, STEME (rate 130, 20 DAA): 0
damage to plant, VERPE (rate 130, 20 DAA): 0
damage to plant, ALOMY (rate 250, 20 DAA): 10
damage to plant, AVEFA (rate 250, 20 DAA): 30
damage to plant, BEAVA (rate 250, 20 DAA): 0
damage to plant, BROTE (rate 250, 20 DAA): 10
damage to plant, BRSNN (rate 250, 20 DAA): 0
damage to plant, CHEAL (rate 250, 20 DAA): 0
damage to plant, GALAP (rate 250, 20 DAA): 0
damage to plant, HORVW (rate 250, 20 DAA): 60
damage to plant, KCHSC (rate 250, 20 DAA): 0
damage to plant, LOLPE (rate 250, 20 DAA): 50
damage to plant, POAAN (rate 250, 20 DAA): 80
damage to plant, POLCO (rate 250, 20 DAA): 50
damage to plant, SINAR (rate 250, 20 DAA): 0
damage to plant, STEME (rate 250, 20 DAA): 10
damage to plant, VERPE (rate 250, 20 DAA): 0
damage to plant, ALOMY (rate 500, 20 DAA): 70
damage to plant, AVEFA (rate 500, 20 DAA): 60
damage to plant, BEAVA (rate 500, 20 DAA): 10
damage to plant, BROTE (rate 500, 20 DAA): 50
damage to plant, BRSNN (rate 500, 20 DAA): 10
damage to plant, CHEAL (rate 500, 20 DAA): 50
damage to plant, GALAP (rate 500, 20 DAA): 0
damage to plant, HORVW (rate 500, 20 DAA): 90
damage to plant, KCHSC (rate 500, 20 DAA): 0
damage to plant, LOLPE (rate 500, 20 DAA): 80
damage to plant, POAAN (rate 500, 20 DAA): 80
damage to plant, POLCO (rate 500, 20 DAA): 80
damage to plant, SINAR (rate 500, 20 DAA): 0
damage to plant, STEME (rate 500, 20 DAA): 60
damage to plant, VERPE (rate 500, 20 DAA): 20

Reference: patent US20220281848A1, “PYRAZOLE-SUBSTITUTED PYRROLIDINONES AS HERBICIDES” (FMC Corporation, priority 2019, published 2022)
